According to US5480777A (priority 1995, dated 1996):
“And” between values parts separate entries of the source, which are not always exact repeats. Identical values can stand only once.

Test system: phosphoenolpyruvate carboxylase (PEPC)
Assay type: biochemical, wheat germ

Row | Compound | k × 10^3 | T1/2 (half-life seconds) [min]
1 | [I-].[K+] [KI] | 12 | –
2 | [K+].[O-][Cl+2]([O-])[O-] [KClO3] | 24 | –
3 | N#CS [KSCN, potassium thiocyanate] | 4.67 and 4.70 and 4.72 and 4.62 and 4.55 and 4.46 | –
4 | [K+].[O-][Cl+3]([O-])([O-])[O-] [KClO4] | 6.3 | 1.73
